Results as given in US6451544B2, “Identification of agents that protect against inflammatory injury to neurons” (Baylor College of Medicine, priority 1996, dated 2002).
“Also recorded” adds a separate entry of the source. Peptide text beside a SMILES is read from it.

Tests used:
[1] = system: rat microglia stimulated with Aβ1-42; human microglia stimulated with fraction S5; test: Drug blockade of Aβ induced neuron killing by rat and human microglia; type: cell-based; conditions: vitamin E 100 μM, catalase 25 units/ml, glutathione 100 μM, L-NIO 10 μM, DPI 300 nM, glutamate antagonists 10 μM
From the text: A number of cytotoxic factors have been reported to participate in Aβ neurotoxicity, including radicals (Behl et al., 1994), nitric oxide (Meda et al., 1995), cytokines (Mrak et al., 1995), and NMDA-like molecules (Giulian et al., 1995a).

[2] = system: neurons; test: Neuroprotective effects of NTox-like compounds; type: cell-based
[3] = system: microglia; test: SpheresAβ1-42 binding to microglia; set-up: species or system rat; conditions: for SpheresAβ1-42 binding to microglia in presence of GAGs or scavenger receptor ligands: heparin sulfate 50 μg/ml, dextran sulfate 500 μg/ml, ac-LDL 200 μg/ml
Procedure: (§1) Isolated microglia (1000 per mm^2 ) were placed atop 16 mm glass coverslips in 24-well culture plates. Each well then received 250,000 SpheresAβ1-42 or Spheresmal-BSA in the presence or absence of Aβ peptides, GAGs, or scavenger receptor ligands. Binding assays were carried out at 37° C. for 4 hours after which coverslips were dipped 10 times in phosphate buffer and fixed with 4% buffered paraformaldehyde. Microsphere adherence to cells was scored at 200 magnification with phase/fluorescence microscopy. Data, expressed as % inhibition of sphere binding, was calculated from total number of spheres per field noted for control cultures receiving spheres only. Values are based upon at least 3 coverslips from 2 independent experiments. Fluoresbrite carboxylate YG microspheres (1.0 micron diameters; 0.5 ml of a 2.5% suspension) were activated with 1% carbodiimide for 4 hr at room temperature. Washed spheres were resuspended in 0.2 M borate buffer (pH 8.5) in the presence of 300 μg Aβ or 400 μg BSA in 6% DMSO. After overnight mixing at room temperature, the spheres were washed extensively and blocked by 1 M glycine (pH 8.0) for 30 minutes. Maleylation of coupled BSA was carried out at room temperature by adding 1 M maleic anhdyride in acetonitrile at pH 9.0.

[4] = system: scavenger receptors; test: Spheresmal-BSA binding to microglia; set-up: species or system rat
Procedure: as §1

[5] = type: physicochemical
Procedure: Properties and sources of amyloid peptides. […] Solubility of peptides is described for chemically-defined culture media at 37° C.

[6] = system: microglia stimulated by Aβ1-42; test: In vitro screening of drugs which inactivate microglia stimulated by Aβ1-42; type: cell-based; conditions: mixed with Aβ peptides; for prevention of neurotoxic microglia, signal transduction inhibitors: test concentrations 0.01 to 100 μM
From the text: Such in vitro assays permit rapid screening of drugs with therapeutic potential for Alzheimer Disease.
Such in vitro assays permit rapid screening of drugs which serve as lead compounds for development of therapeutics for Alzheimer Disease.
Once activated by plaque components, microglia release neurotoxic agents. Although many drugs are known to suppress the immune system outside the brain, it is not known which drugs actually have the ability to inactivative plaque-stimulated microglia within the brain and thus prevent the immune-mediated damage caused by Alzheimer Disease. […] Activated microglia also require intracellular events signaled by signal transducers, to convert the plaque or Aβ complex formation with microglia into cellular events which lead to the production and release of neurotoxins including NTox. […] Thus, the use of the microglia-neuron assay systems allowed identification of specific drug families with value in the treatment of Alzheimer Disease.

[7] = system: rat hippocampal cultures supplemented with microglia; test: Neurotoxicity assay: hippocampal neuron cultures supplemented with microglia (induction of neurotoxic microglia); type: cell-based
From the text: Rat microglia were isolated from newborn animals using the method of Giulian and Baker, 1986, with recovery of >98% homogenous population monitored by binding the fluorescent probe acetylated low density lipoprotein labeled with 1,1′-dioctadecyl-3,3,3′,3′-tetramethyl-indo-carbocyanine [Dil-ac-LDL]). Amyloid proteins were isolated from AD neocortical gray matter laden with neuritic and core plaques with final separations involving a discontinuous sucrose gradient. […] Cultured neurons prepared from rat hippocampus consisted of process-bearing neurons (10-20% of total cell population) atop a bed of astroglia (>70%) mixed with microglia (5-10%). In order to eliminate microglia, cultures were exposed saporin (a ribosome-inactivating protein) coupled to acetylated LDL (ac-LDL) for 10 pg/ml for 18 hours. […] After 14 days in vitro, cultures (with a final concentration of 0.6% serum) were exposed to test substances in the presence or absence of exogenous microglia for 72 hours. […] Data were expressed as % mean survival expressed in terms of parallel untreated control cultures after scoring at least 8 randomly selected fields for each of 3 coverslips from at least 3 independent experiments. […]

[8] = system: rat microglia; test: Binding of Aβ peptide-coupled fluorescent microspheres to microglia; conditions: 1 micron fluorescent microspheres
Procedure: Fluoresbrite carboxylate microspheres (YG 1.0 μm, Polysciences; 0.5 ml of a 2.5% suspension) were washed twice in 0.1 M carbonate buffer (pH 9.6) and three times in 0.02 M sodium phosphate (pH 4.5). Carbodiimide was then added dropwise to a final concentration of 1% and the suspension mixed for 4 hours at room temperature. Following 3 more washes in 0.02M sodium phosphate, the pellet was resuspended in 1.2 ml of 0.2 M borate buffer (pH 8.5) and 300 μg Aβ (or control peptide) and 5% DMSO added. After overnight mixing at room temperature, the microspheres were blocked by 1 M glycine (pH 8.0) for 30 minutes and washed in 10 mg/ml BSA in phosphate buffer.
To delineate further which portions of the Aβ peptide served as a microglial binding site, a variety of synthetic peptides coupled to 1 micron diameter microspheres was next compared.

[9] = system: brain neocortex; test: Microsphere implants in brain neocortex; type: in vivo
From the text: FIGS. 7A, B, and C show SpheresAβ1-42 in vivo. Weeks after implantation of large microspheres (250 micron diameter) remain embedded within brain neocortex (FIG. 7A). […] Microglia were visualized by uptake of fluorescent labeled acetylated LDL, Dil-ac-LDL Bar=40 μm, FIG. 7A; 25 μm FIGS. 7B and C.
Data support histological changes.
In vivo binding, activation, and neurotoxicity assays involve infusion of a tagged plaque component coupled to a solid support such as microspheres (FIG. 7) into a mammalian brain. Following infusion of materials, a test compound may be co-injected into the brain intraventricularly or intracranially by cannula with delivery systems including syringes or implanted osmotic pumps. A test compound may also be delivered systemically by intraperitoneal, intravenous, intra-arterial, nasal, or oral routes. Evidence of immune activation of the brain by a plaque component may be monitored using histological, biochemical, or molecular methods such as quantitative reverse transcriptase polymerase chain reaction method to identify cell markers of immune responses including surface proteins, enzymes, or cytokines (FIG. 8). The production of neurotoxic activity may be assayed by histochemical (FIG. 7) or biochemical to identify cell markers of immune responses including injury or destruction of neurons. […]

[10] = system: HEK cells expressing NMDA1b/2A; test: NTox exposure of HEK cells expressing NMDA receptors (trypan blue); type: cell-based, human
From the text: FIG. 6A) Photomicrograph of trypan blue(+) control HEK cells exposed to NTox.
Presence of neurotoxic activity will be determined by reduction in cell number, changes in biochemical markers such as loss of cell metabolic function, release of intracellular material, penetration of impermeant dyes, such as and not limited to fluorescent nuclear dyes and trypan blue (FIG. 6), reduction of the number of neurons, loss of neurofilament or synaptophysin, release of lactate dehydrogenase, or other evidence of cell injury.

[11] = trypsin 5000 units/ml 60 min, heparinase 2 x 0.01 units/ml, chondroitinase ABC 2 x 0.02 units/ml

CC(C(O)c1ccc(O)cc1)N1CCC(Cc2ccccc2)CC1 (stereo not drawn) [ifenprodil]
protection against microglia-mediated neuron killing [1]: prevented neuronal loss; also recorded: blocked neuron death

NCCc1ccc(O)cc1 [tyramine]
protection of neurons against quinolinic acid ([2]; 100 μM quinolinic acid (QUIN)): protective effect did not occur; also recorded: did not block
protection of neurons against NTox / Aβ1-42-stimulated microglia ([2]; microglia stimulated with Aβ1-42 or isolated NTox applied to neurons): prevented neuronal injury; also recorded: did not damage neurons in the presence of tyramine

c1ccc([I+]c2ccccc2)cc1 [DPI, diphenyl iodonium]
protection against microglia-mediated neuron killing [1]: no reduction of microglia-mediated neuron killing; also recorded: No protective effects were observed

trypsin
SpheresAβ1-42 binding after enzymatic pre-treatment of microglia [3, 11]: reduced
Spheresmal-BSA binding after enzymatic pre-treatment of microglia [4, 11]: reduced

CC[C@H](C)[C@H](NC(=O)[C@H](C)NC(=O)CNC(=O)[C@H](CCCCN)NC(=O)[C@H](CC(N)=O)NC(=O)[C@H](CO)NC(=O)CN)C(=O)N[C@H](C(=O)NCC(=O)N[C@@H](CC(C)C)C(=O)N[C@@H](CCSC)C(=O)O)[C@@H](C)CC [Aβ25-35] (H-GSNKGAIIGLM-OH; N-terminus and C-terminus assumed)
Solubility [5]: soluble

O=c1c(-c2ccc(O)cc2)coc2cc(O)cc(O)c12 [genistein]
prevention of neurotoxic microglia, signal transduction inhibitors [6]: had a protective effect

SpheresAβ1-42: Aβ1-42 coupled to microspheres
capacity to elicit neurotoxic microglia, coupled to microspheres or in solution ([7]; 250,000 microspheres per culture, 100,000 microglia per culture, 72 hour incubation): induced neuron killing
uptake of peptide-coupled microspheres by microglia in culture [8]: rapidly engulfed by cultured microglia
reactive microglia around implanted microspheres ([9]; 250 micron spheres, weeks after implantation): chronically stimulate the presence of reactive cells
increase in scavenger receptor II mRNA in tissue surrounding implant ([9]; two weeks after implantation, vs undamaged control tissue or SphereBSA): 5 fold

NC(CCCP(=O)(O)O)C(=O)O (stereo not drawn) [AP5]
protection against microglia-mediated neuron killing [1]: prevented neuronal loss; also recorded: prevented neuron death

CC[C@H](C)[C@H](NC(=O)[C@H](C)NC(=O)CNC(=O)[C@H](CCCCN)NC(=O)[C@H](CC(N)=O)NC(=O)[C@H](CO)NC(=O)CNC(=O)[C@@H](NC(=O)[C@H](CC(=O)O)NC(=O)[C@H](CCC(=O)O)NC(=O)[C@H](C)NC(=O)[C@H](Cc1ccccc1)NC(=O)[C@H](Cc1ccccc1)NC(=O)[C@@H](NC(=O)[C@@H](N)CC(C)C)C(C)C)C(C)C)C(=O)N[C@H](C(=O)NCC(=O)N[C@@H](CC(C)C)C(=O)N[C@@H](CCSC)C(=O)N[C@H](C(=O)NCC(=O)NCC(=O)N[C@H](C(=O)N[C@H](C(=O)N[C@H](C(=O)N[C@@H](C)C(=O)O)[C@@H](C)CC)C(C)C)C(C)C)C(C)C)[C@@H](C)CC [Aβ17-42] (H-LVFFAEDVGSNKGAIIGLMVGGVVIA-OH; N-terminus and C-terminus assumed)
Solubility [5]: very insoluble

C[C@]12N[C@H](Cc3ccccc31)c1ccccc12 [MK-801]
protection against microglia-mediated neuron killing [1]: prevented neuronal loss
protection against microglia-mediated neuron killing ([1]; listed as MK801): blocked neuron death
blockade of NTox killing effect [10]: could be blocked

chondroitin sulfate
SpheresAβ1-42 binding to microglia in presence of GAGs or scavenger receptor ligands [3]: not similar compounds; also recorded: only heparin sulfate blocked

CC(C)C[C@H](NC(=O)[C@H](CCCCN)NC(=O)[C@H](CCC(N)=O)NC(=O)[C@H](Cc1cnc[nH]1)NC(=O)[C@H](Cc1cnc[nH]1)NC(=O)[C@@H](N)C(C)C)C(=O)N[C@H](C(=O)N[C@@H](Cc1ccccc1)C(=O)N[C@@H](Cc1ccccc1)C(=O)N[C@@H](C)C(=O)N[C@@H](CCC(=O)O)C(=O)N[C@@H](CC(=O)O)C(=O)N[C@H](C(=O)NCC(=O)N[C@@H](CO)C(=O)N[C@@H](CC(N)=O)C(=O)N[C@@H](CCCCN)C(=O)O)C(C)C)C(C)C [Aβ12-28]
Solubility [5]: soluble

catalase
protection against microglia-mediated neuron killing [1]: no reduction of microglia-mediated neuron killing; also recorded: did not block microglial killing of neurons

COc1c(C=O)c(O)cc2c1C(=O)c1ccccc1C2=O [damacanthal]
prevention of neurotoxic microglia, signal transduction inhibitors [6]: had a protective effect

heparin sulfate
SpheresAβ1-42 binding to microglia in presence of GAGs or scavenger receptor ligands [3]: reduction of binding; also recorded: blocked SpheresAβ1-42 binding
SpheresAβ1-42 binding to microglia in presence of GAGs or scavenger receptor ligands ([3]; listed as heparan sulfate): block Aβ binding to microglia

NC(CCCCCP(=O)(O)O)C(=O)O (stereo not drawn) [AP7]
protection against microglia-mediated neuron killing [1]: prevented neuronal loss; also recorded: blocked neuron death

vitamin E
protection against microglia-mediated neuron killing [1]: no reduction of microglia-mediated neuron killing; also recorded: did not block microglial killing of neurons

CCN(CC)CCCC(C)Nc1ccnc2cc(Cl)ccc12 (stereo not drawn) [chloroquine]
prevention of neurotoxic microglia, immuno-suppressive drugs ([6]; test concentrations 0.1 to 10 μM): had a protective effect; also recorded: block neuron killing

N[C@@H](CCC(=O)N[C@@H](CS)C(=O)NCC(=O)O)C(=O)O [glutathione]
protection against microglia-mediated neuron killing [1]: no reduction of microglia-mediated neuron killing; also recorded: did not block microglial killing of neurons

N[C@H](CCC(=O)NCS(=O)(=O)O)C(=O)O [GAMS]
protection against microglia-mediated neuron killing [1]: did not

CC(=N)NCCC[C@H](N)C(=O)O.Cl [L-NIO, L-N-5-(1-imin-oethyl)ornithine hydrochloride]
protection against microglia-mediated neuron killing ([1]; hydrochloride): no reduction of microglia-mediated neuron killing; also recorded: No protective effects were observed

rodent Aβ1-42: rodent form of Aβ1-42 (DAEFGHDSGFEVRHQKLVFFAEDVGSNKGAIIGLMVGGVVIA; Amyloid-beta protein 42; UniProt P12023 672-713, looked up, fragment)
induction of neurotoxic microglia / neuron killing in presence of microglia ([7]; peptide in solution, typically 1 μmole/l, 72 hours, microglia 500 per mm^2): does not induce toxicity

dextran sulfate
SpheresAβ1-42 binding to microglia in presence of GAGs or scavenger receptor ligands [3]: not similar compounds
SpheresAβ1-42 binding to microglia in presence of GAGs or scavenger receptor ligands ([3]; listed as dextm sulfate): only heparin sulfate blocked
Spheresmal-BSA binding to microglia in presence of ligands ([4]; dextran sulfate 500 μg/ml, ac-LDL 200 μg/ml, Aβ1-16 10 μmole/l): blocked Spheresmal-BSA binding
